Converted amounts (≈) assume the structure as drawn. Numbered stars: 1 amine (or outer) side, 2 acyl side, 3 side chain; on linkers, the order of the positions; unused ones are H or OH. Square brackets hold non-standard residues; d marks the D form. Side chains are listed from the residue outwards. Ends that are not written are not given here. Peptide text beside a SMILES is read from it. * marks the point of attachment. C18 diacid = O=C(O)CCCCCCCCCCCCCCCCC(=O)*; γGlu = O=C(O)[C@H](CCC(=O)[*:2])N[*:1]; AEEA = NCCOCCOCC(=O)O; Aib = CC(C)(N)C(=O)O
T1: human GIP receptor (Homo sapiens, UniProt P48546)
T1 construct: human adipocytes endogenously expressing the human GIP receptor; host or cells: human preadipocytes (Lonza) differentiated to adipocytes
T1 sequence (P48546 22-466): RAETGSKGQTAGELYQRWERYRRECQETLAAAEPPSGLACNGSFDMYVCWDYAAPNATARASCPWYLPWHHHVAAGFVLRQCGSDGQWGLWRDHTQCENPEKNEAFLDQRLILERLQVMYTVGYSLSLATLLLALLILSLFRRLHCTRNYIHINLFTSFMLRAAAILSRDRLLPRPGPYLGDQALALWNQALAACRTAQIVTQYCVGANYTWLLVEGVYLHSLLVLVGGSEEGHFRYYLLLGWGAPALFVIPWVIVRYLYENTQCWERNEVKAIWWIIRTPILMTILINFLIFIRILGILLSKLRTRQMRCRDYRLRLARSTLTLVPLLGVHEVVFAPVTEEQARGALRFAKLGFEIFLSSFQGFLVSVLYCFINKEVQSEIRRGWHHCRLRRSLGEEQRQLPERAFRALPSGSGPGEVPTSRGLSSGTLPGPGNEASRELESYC

T2: human GIP receptor (hGIPR) (Homo sapiens, UniProt P48546)
T2 sequence (P48546 22-466): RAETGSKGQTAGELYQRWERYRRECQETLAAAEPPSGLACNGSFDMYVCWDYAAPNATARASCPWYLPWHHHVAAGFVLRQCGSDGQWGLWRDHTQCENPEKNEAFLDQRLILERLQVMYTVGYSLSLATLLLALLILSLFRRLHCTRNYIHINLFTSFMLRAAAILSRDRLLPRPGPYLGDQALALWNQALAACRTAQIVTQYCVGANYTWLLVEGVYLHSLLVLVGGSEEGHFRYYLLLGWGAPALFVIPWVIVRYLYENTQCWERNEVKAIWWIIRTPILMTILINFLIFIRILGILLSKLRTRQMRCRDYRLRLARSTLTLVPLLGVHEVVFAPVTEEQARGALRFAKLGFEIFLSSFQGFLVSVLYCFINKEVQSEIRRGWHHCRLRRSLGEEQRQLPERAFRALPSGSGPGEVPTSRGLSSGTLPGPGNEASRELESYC

T3: human GIP receptor (human), P48546
T3 chain: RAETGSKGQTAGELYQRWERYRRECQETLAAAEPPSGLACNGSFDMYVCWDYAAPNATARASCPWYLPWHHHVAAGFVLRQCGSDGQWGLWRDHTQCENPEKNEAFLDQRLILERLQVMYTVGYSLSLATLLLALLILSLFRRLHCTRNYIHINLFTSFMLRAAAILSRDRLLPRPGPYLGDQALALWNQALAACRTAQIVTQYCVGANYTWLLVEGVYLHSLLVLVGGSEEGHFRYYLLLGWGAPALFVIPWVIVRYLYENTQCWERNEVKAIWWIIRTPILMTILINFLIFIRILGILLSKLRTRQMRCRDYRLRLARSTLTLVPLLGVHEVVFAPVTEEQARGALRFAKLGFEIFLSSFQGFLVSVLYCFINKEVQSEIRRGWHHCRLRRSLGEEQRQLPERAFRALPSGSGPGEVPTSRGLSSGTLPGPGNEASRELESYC

T4: human GLP-1 receptor (human), P43220
T4 chain: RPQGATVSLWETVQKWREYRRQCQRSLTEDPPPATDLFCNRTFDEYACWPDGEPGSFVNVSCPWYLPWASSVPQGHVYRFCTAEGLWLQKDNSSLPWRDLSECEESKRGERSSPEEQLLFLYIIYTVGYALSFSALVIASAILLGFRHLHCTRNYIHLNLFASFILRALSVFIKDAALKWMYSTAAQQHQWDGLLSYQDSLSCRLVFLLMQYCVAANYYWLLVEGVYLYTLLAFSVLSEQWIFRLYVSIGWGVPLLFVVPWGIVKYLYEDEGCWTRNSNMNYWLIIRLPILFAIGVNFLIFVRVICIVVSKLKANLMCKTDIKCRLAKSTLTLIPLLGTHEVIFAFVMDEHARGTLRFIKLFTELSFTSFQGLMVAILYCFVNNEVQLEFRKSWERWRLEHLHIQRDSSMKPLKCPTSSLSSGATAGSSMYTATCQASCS


Key:
[1] = Chemical stability assessment (UHPLC-UV purity loss on storage in solution); assay type: physicochemical; details: Chemical stability buffer system A: 20 mM phosphate buffer pH 7.4; ~300 μM
Experimental: Purity of a peptide batch was determined through UHPLC/MS prior to chemical stability measurement. The target concentration was 300 μM pure compound. Solutions from solid samples were prepared in the following buffer systems with a concentration of ˜300 μM compound based on the previously determined % purity: • Chemical stability buffer system A) 20 mM phosphate buffer pH 7.4, • Chemical stability buffer system B) 8 mM phosphate buffer pH 7.4, 14 mg/ml propylene glycol, 5.5 mg/ml phenol • Chemical stability buffer system C) 100 mM phosphate buffer pH 7.4, 2.7 mg/ml m-cresol
Prepared solutions were filtered through […] pore size and filled into sterilized glass containers under laminar flow conditions.
Glass containers were stored for 28 days at 5 and 40° C. After this time, the samples were centrifuged for 15 min at 2500 RCF. Then 1.5 μl of the undiluted supernatant were analysed with UHPLC-UV.
The chemical stability was rated through the relative loss of purity calculated by the equation: […]
The purity is calculated as
The analytical methods used were Analytical UHPLC Method B or C.
Peptide samples were prepared in Chemical stability buffer system A or B and stability was assessed as described in Methods.

[2] = Solubility assessment (UHPLC-UV of supernatant, target 10 mg/ml); assay type: physicochemical
Procedure, shortened: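 Peptides at 10 mg/ml (purity-corrected) in 100 mM phosphate pH 7.4, optionally with 2.7 mg/ml m-cresol; gentle agitation 1 h, then 5° C. overnight (24 h). Supernatant after 15 min centrifugation at 2500 RCF quantified by UHPLC-UV, with sequence-based extinction coefficients.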

[3] = molecular target: human GLP-1 receptor (hGLP-1R) (Homo sapiens, UniProt P43220); test: In vitro cellular cAMP assay for GLP-1 receptor efficacy (HEK-293 cell line over-expressing receptor); assay type: cell-based; details: HEK-293, 0.1% BSA
human GIP receptor = molecular target: T1, human GIP receptor; test: In vitro cellular cAMP assay for GIP receptor efficacy (human adipocytes); assay type: cell-based; details: read-out: hGIPR Emax
Procedure, shortened: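 Human preadipocytes expanded, then differentiated 6 days (insulin, dexamethasone, PPARγ agonist, 200 μM IBMX, L-thyroxine) before plating at 5000 cells/well. Test compound applied 30 min at room temperature; cAMP measured by HTRF after 1 h with lysis-buffer reagents, read as 665/620 nm fluorescence ratio.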

[4] = molecular target: T2, human GIP receptor (hGIPR); test: Binding assay, displacement of [125I]GIP from HEK-293 membranes over-expressing GIPR (SPA); details: [125I]GIP displacement
Procedure, shortened: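 Membranes from HEK-293 cells over-expressing human GIPR or GLP-1R, isolated by homogenising, sonicating and ultracentrifuging at 100000×g into HEPES/EDTA/NaCl buffer with protease inhibitors, were used for binding.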

[5] = molecular target: T3, human GIP receptor (human), P48546; test: cell-based or functional assay
[6] = molecular target: T3, human GIP receptor (human), P48546; test: displacement of [125I]GIP from HEK-293 membranes expressing hGIPR (SPA beads)
[7] = molecular target: T4, human GLP-1 receptor (human), P43220; test: displacement of [125I]GLP-1 from HEK-293 membranes expressing hGLP-1R (SPA beads)

Row | Molecule | Relative purity loss over 28 days at 40° C. [1] [%] | Soluble amount ([2]; 24 h, pH 7.4) [mg/mL] | solubility at 24 h ([2]; pH 7.4, Soluble amount) [µg/mL] | EC50 [3] [nM] | Emax (human GIP receptor) [%] | IC50 [4] [nM] | EC50 hGIPR 0% HSA (cAMP, HEK-293) [5] [nM] | EC50 hGIPR 0.1% BSA (cAMP, HEK-293) [5] [nM] | hGIPR EC50 (cAMP, human adipocytes) [5] [nM] | hGIPR Emax (cAMP, human adipocytes) [5] [%] | IC50 [6] [nM] | IC50 [7] [nM]
1 | CC[C@H](C)[C@H](NC(=O)[C@H](CCCNC(=N)N)NC(=O)[C@H](CC(=O)O)NC(=O)[C@H](CCCCNC(=O)COCCOCCNC(=O)COCCOCCNC(=O)CC[C@H](NC(=O)CCCCCCCCCCCCCCCCC(=O)O)C(=O)O)NC(=O)C(C)(C)NC(=O)[C@@H](NC(=O)[C@H](CO)NC(=O)[C@H](CC(C)C)NC(=O)[C@H](CC(=O)O)NC(=O)[C@H](CO)NC(=O)[C@@H](NC(=O)[C@H](Cc1ccccc1)NC(=O)[C@@H](NC(=O)CNC(=O)[C@H](CCC(=O)O)NC(=O)C(C)(C)NC(=O)[C@@H](N)Cc1ccc(O)cc1)[C@@H](C)O)[C@@H](C)CC)[C@@H](C)CC)C(=O)N[C@@H](Cc1c[nH]cn1)C(=O)N[C@@H](CCC(N)=O)C(=O)NC(C)(C)C(=O)N[C@@H](CCC(=O)O)C(=O)N[C@@H](Cc1ccccc1)C(=O)N[C@H](C(=O)N[C@@H](CCC(=O)O)C(=O)N[C@@H](Cc1c[nH]c2ccccc12)C(=O)N[C@@H](CC(C)C)C(=O)N[C@@H](CC(C)C)C(=O)N[C@@H](C)C(=O)N[C@@H](CCC(N)=O)C(=O)N[C@@H](CCC(=O)O)C(=O)N1CCC[C@H]1C(=O)N[C@@H](CO)C(=O)N[C@@H](CO)C(=O)NCC(=O)N[C@@H](C)C(=O)N1CCC[C@H]1C(=O)N1CCC[C@H]1C(=O)N1CCC[C@H]1C(=O)N[C@@H](CO)C(N)=O)[C@@H](C)CC [SEQ ID NO: 29, H2N-Y-Aib-E-G-T-F-I-S-D-L-S-I-Aib-K[{AEEA}2-gGlu-C18OH]-D-R-I-H-Q-Aib-E-F-I-E-W-L-L-A-Q-E-P-S-S-G-A-P-P-P-S-NH2] (H-Y[Aib]EGTFISDLSI[Aib]K([AEEA-AEEA-γGlu-C18 diacid])DRIHQ[Aib]EFIEWLLAQEPSSGAPPPS-NH2) | 5.6 | 9.1 | 8000 (≈ 1590 µM) | > 10 | 119 | 0.2 |  |  |  |  |  | 
2 | Y[Aib]EGTFISDLSI[Aib]LEEQKQ[Aib]EFIEWLLAQGPSSGEPPPS-NH2 [SEQ ID NO: 38] |  |  |  |  |  |  | 0.00019 | 0.0531 | 0.4 | 92 | 0.2 | 73

— US20240360194A1, “New Peptides as Potent and Selective GIP Receptor Agonists” (Sanofi, priority 2021, published 2024)
